ChEMBL document CHEMBL1141635, “Novel GSK-3beta inhibitors from sequential virtual screening” (Bioorg Med Chem, 2008)

molecular target: Glycogen synthase kinase-3 beta (Homo sapiens) (UniProt P49841); experiment: Inhibition of human GSK3-beta assessed as remaining enzyme activity at 10 uM
Sequence (P49841 whole entry, looked up): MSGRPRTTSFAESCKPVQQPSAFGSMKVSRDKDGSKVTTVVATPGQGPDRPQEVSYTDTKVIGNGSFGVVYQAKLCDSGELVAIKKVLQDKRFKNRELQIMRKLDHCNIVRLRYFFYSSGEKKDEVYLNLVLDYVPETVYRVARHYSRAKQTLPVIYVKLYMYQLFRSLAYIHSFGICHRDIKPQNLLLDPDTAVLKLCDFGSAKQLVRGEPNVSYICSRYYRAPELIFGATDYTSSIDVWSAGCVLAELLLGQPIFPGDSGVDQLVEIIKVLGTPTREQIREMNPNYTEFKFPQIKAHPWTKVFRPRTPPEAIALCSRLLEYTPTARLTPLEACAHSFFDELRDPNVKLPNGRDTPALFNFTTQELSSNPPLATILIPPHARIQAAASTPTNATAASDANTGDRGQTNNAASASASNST

In order of falling Activity:
1. CC1=NCCNC2=C1[C@H](c1ccc(F)cc1)N(c1ccccn1)C2=O  99%
2. CCCNc1nc2ccccn2c(=O)c1/C=C1\SC(=S)NC1=O  95%
3. COc1ccc2c(c1)/C(=C1/SC(=S)NC1=O)C(=O)N2  84%
4. Cc1ccc(S(=O)(=O)n2cc(/C=C3\SC(=S)NC3=O)c3ccccc32)cc1  67%
5. CCOc1cc(C=C2C(=O)NC(=S)NC2=O)cc(I)c1OC  58%
6. O=C1CC(C(F)(F)F)=NC(Sc2c(-c3ccccc3)c3cc([N+](=O)[O-])ccc3[nH]c2=O)=N1  41%
7. Cc1cc(/C=C2\SC(=S)NC2=O)c(C)n1-c1cccc([N+](=O)[O-])c1  41%
8. Cc1ccc(/N=C2/NC(=O)S/C2=C\c2ccccc2Cl)cc1  18%
9. O=C1NC(=S)S/C1=C\c1ccccc1OS(=O)(=O)c1ccccc1[N+](=O)[O-]  14%
10. O=C1NC(=O)/C(=C/c2ccc(-c3cc([N+](=O)[O-])ccc3Cl)o2)S1  8%
11. O=C1NC(=S)S/C1=C\c1ccc(O)c([N+](=O)[O-])c1  7%
12. COc1cc(/C=C2\SC(=S)NC2=O)cc(Br)c1OCc1ccccc1C  6%
13. COc1ccc(-c2ccc(/C=C3\SC(=S)NC3=O)o2)c([N+](=O)[O-])c1  5%
